Assay results published in ChEMBL document CHEMBL1145404, “o-Naphthalenedicarboxaldehyde derivative of 7'-aminonaltrindole as a selective delta-opioid receptor affinity label” (J Med Chem, 2007).

How the values were obtained:
[1] = target: Delta-type opioid receptor (Mus musculus, UniProt P32300); experiment: Agonist activity at delta opioid receptor in mouse vas deferens; format: functional, tissue-based
[2] = target: Mu-type opioid receptor (Cavia porcellus, UniProt P97266); experiment: Agonist activity at mu opioid receptor in guinea pig ileum longitudinal muscle; format: functional, tissue-based
Sequence of Mu-type opioid receptor (Cavia porcellus, UniProt P97266) (P97266 whole entry): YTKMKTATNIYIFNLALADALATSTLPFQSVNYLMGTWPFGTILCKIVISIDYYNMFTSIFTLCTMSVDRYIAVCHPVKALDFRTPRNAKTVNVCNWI

[3] = target: Mu-type opioid receptor (Homo sapiens, UniProt P35372); experiment: Displacement of [3H]diprenorphine from mu opioid receptor expressed in human HEK293 cells; format: cell-based
Sequence of Mu-type opioid receptor (Homo sapiens, UniProt P35372) (P35372 whole entry): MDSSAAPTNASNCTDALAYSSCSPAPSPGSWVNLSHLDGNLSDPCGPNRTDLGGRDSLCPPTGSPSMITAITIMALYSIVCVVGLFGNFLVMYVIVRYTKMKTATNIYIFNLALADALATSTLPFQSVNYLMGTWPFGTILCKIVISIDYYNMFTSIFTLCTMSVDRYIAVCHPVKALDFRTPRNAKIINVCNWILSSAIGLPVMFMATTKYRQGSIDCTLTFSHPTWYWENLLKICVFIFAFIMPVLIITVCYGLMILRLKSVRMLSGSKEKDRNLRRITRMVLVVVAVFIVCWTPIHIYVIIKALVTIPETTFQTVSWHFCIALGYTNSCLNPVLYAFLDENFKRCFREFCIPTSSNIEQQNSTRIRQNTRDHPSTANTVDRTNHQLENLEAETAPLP

[4] = target: Kappa-type opioid receptor (Homo sapiens, UniProt P41145); experiment: Displacement of [3H]diprenorphine from kappa opioid receptor expressed in human HEK293 cells; format: cell-based
Sequence of Kappa-type opioid receptor (P41145 whole entry): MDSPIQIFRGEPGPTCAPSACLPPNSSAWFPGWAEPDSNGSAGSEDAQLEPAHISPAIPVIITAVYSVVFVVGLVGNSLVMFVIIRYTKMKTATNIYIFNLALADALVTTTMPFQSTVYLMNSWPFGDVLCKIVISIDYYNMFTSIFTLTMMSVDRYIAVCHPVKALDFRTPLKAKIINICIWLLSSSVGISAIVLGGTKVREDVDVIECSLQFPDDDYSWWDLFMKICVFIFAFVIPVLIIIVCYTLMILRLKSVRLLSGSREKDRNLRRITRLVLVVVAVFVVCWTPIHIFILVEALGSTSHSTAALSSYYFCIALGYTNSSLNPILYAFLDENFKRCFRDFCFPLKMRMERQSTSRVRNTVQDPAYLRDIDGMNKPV

[5] = target: Delta-type opioid receptor (Homo sapiens, UniProt P41143); experiment: Displacement of [3H]diprenorphine from delta opioid receptor expressed in human HEK293 cells; format: cell-based
Sequence of Delta-type opioid receptor (Homo sapiens, UniProt P41143) (P41143 whole entry): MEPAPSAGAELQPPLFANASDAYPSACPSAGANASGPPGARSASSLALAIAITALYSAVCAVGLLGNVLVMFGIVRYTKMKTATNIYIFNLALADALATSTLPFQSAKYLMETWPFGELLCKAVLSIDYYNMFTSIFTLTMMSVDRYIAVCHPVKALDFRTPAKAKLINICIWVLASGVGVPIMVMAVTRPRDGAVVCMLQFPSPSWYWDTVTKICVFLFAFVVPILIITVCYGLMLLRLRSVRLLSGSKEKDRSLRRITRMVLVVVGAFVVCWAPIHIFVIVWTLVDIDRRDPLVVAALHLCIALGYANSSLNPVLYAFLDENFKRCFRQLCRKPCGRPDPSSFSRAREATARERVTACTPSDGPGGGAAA

[6] = target: Opioid receptors; mu & delta (Homo sapiens) (UniProt P41143+P35372); experiment: Selectivity for human delta opioid receptor to human mu opioid receptor; format: protein assay
Sequence of Opioid receptors; mu & delta (Homo sapiens) (P35372 whole entry, looked up): as the sequence (P35372 whole entry) above
Sequence of Opioid receptors; mu & delta (Homo sapiens) (P41143 whole entry, looked up): as the sequence (P41143 whole entry) above

[7] = target: Opioid receptors; delta & kappa (Homo sapiens) (UniProt P41145+P41143); experiment: Selectivity for human delta opioid receptor to human kappa opioid receptor; format: protein assay
Sequence of Opioid receptors; delta & kappa (Homo sapiens) (P41143 whole entry, looked up): as the sequence (P41143 whole entry) above
Sequence of Opioid receptors; delta & kappa (Homo sapiens) (P41145 whole entry, looked up): as the sequence (P41145 whole entry) above

Sequence of Delta-type opioid receptor (Mus musculus, UniProt P32300) (P32300 whole entry): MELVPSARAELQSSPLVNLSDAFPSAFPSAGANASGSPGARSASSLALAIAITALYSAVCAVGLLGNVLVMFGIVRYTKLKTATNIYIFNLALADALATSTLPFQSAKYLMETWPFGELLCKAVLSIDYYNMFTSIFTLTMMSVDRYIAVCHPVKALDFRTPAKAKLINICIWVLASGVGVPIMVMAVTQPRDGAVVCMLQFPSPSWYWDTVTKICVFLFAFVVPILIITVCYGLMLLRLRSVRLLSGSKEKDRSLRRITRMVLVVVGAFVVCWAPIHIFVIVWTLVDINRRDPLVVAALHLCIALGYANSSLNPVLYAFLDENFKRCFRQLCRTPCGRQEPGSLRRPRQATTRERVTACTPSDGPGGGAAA

`O=Cc1cc2ccc(C(=O)Nc3cccc4c5c([nH]c34)[C@@H]3Oc4c(O)ccc6c4[C@@]34CCN(CC3CC3)[C@H](C6)[C@]4(O)C5)cc2cc1C=O` was tested, and the IC50 [1] was 0.46 nM, the IC50 [2] was 19.5 nM and the Ki [3] was 144 nM. The Ki [4] was 153 nM, the Ki [5] was 2.25 nM and the Ratio Ki [6] was 64. It also gave a Ratio Ki [7] of 68.
